Data: patent US3932423A, “Imidazolido(1,5-c)thiazolidine-3-spiro-4-piperidines” (Yoshitomi Pharmaceutical Industries, priority 1973, dated 1976)

Legend:
Acute Toxicity = assay: Acute Toxicity; parameters: species or system mice, female; settings: mouse, in vivo, po; lethal rate within two days
Method: The test compound was orally administered to groups each of 5 female mice respectively. The LD50 was calculated from the lethal rate (50 percent) within two days after administration of the test compound.

mice [1] = assay: Suppression of Spontaneous Motility; type: in vivo, dd-strain, male; settings: Mus musculus, ip; counted for 20 minutes, 40 minutes after administration; dose for 50 percent suppression
Method: The spontaneous motility of mice was counted by magnetic counter of photocell method according to P. B. Dews in "British Gournal of Pharmacology", vol. 8, p. 46 ff. (1953). Forty minutes after the intraperitoneal administration of the test compound, the spontaneous motility was counted for 20 minutes.

mice [2] = assay: Suppression of Fighting Behavior; type: in vivo, dd-strain, female; settings: Mus musculus, po, 60 minutes prior to electric foot-shock; dose to suppress 50 percent of fighting pairs
Method: 125, p. 28 ff. (1959). […] The ED50, the dose required to suppress 50 percent of fighting pairs, was determined graphically.

mice [3] = assay: Antimescaline Effect; type: in vivo, female; settings: Mus musculus, po, 60 minutes prior to mescaline sulfate 30 mg./kg. i.p.; prevention of scratching in 50 percent of animals
Method: A modification of the method of R. A. Turner [Screening Method in Pharmacology, Edited by R. A. Turner, p. 73, Academic Press (1965)] was used to study the prevention of scratching episodes induced by mescaline. The test compound was given to groups each of 6 female mice orally 60 minutes prior to treatment with mescaline sulfate (30 mg./kg. of body weight, intraperitoneal).

mice [4] = assay: Reserpine Potentiation; type: in vivo, dd-strain, female; settings: Mus musculus, po, 30 minutes before reserpine 10 mg./kg. i.p.; dose potentiating reserpine effect by 30 percent 15 minutes after reserpine; read-out: Reserpine Potentiation PD30
Method: Reserpine potentiation was measured by the method described by M. D. Aceto in "Toxicology and Applied Pharmacology," vol. 7, p. 329 ff. (1965). […] The degree of blepharoptosis of both eyes was observed 15, 60, 120 and 180 minutes after the administration of reserpine.

mice [5] = assay: Methamphetamine Group Toxicity; settings: Mus musculus, po, 5 h, read-out: Methamphetamine Group Toxicity, ED50

SMILES | LD50 at 48 h (Acute Toxicity) | ED50 (mice [1]) | ED50 (mice [2]) | ED50 (mice [3]) | ED30 (mice [4]) | ED50 (mice [5])
NC(=O)C1(N2CCCCC2)CCN(CCCC(=O)c2ccc(F)cc2)CC1 [Floropipamide] | > 1000 mg/kg | 1 mg/kg | 5.6 mg/kg | 1 mg/kg | 2.5 mg/kg | 9.2 mg/kg
CN1C(=O)C2CSC3(CCN(CCCC(=O)c4ccc(F)cc4)CC3)N2C1=O (stereo not drawn) [Compound A, 5,7-dioxo-6-methylimidazolido[1,5-c]thiazolidine-3-spiro-4'-[1'-(4-p-fluorophenyl-4-oxobutyl)piperidine]] | > 1000 mg/kg | 0.1 mg/kg | 2.6 mg/kg | 0.1 mg/kg | 1.9 mg/kg | 1.1 mg/kg
